# Tested on: human colon tumour cell line HT29
# Test: Cellular Assay (phosphohistone H3 Ser10 mitotic marker, HT29)
# Assay type: cell-based
# Settings: HT-29, 24 h, HT29 cells, read-out: IC50 (cellular assay, phosphohistone H3)
row,IC50,Structure (SMILES)
1,< 1000 nM,"CC(C)N1CC2(CC2)C(=O)N(C)c2cnc(Nc3cc(F)c(C(=O)N[C@@H]4CCN(C)C4)cc3Cl)nc21 [Example 310, (R)-5-chloro-2-fluoro-4-(9′-isopropyl-5′-methyl-6′-oxo-5′,6′,8′,9′-tetrahydrospiro[cyclopropane-1,7′-pyrimido[5,4-b][1,4]diazepine]-2′-ylamino)-N-(1-methylpyrrolidin-3-yl)benzamide]"
2,< 300 nM,"CCC1(CC)CN(C2CCCC2)c2nc(Nc3ccc(C(=O)NC4CCN(C)CC4)cc3OC)ncc2N(C)C1=O [Example 380, 4-[(2-cyclopentyl-4,4-diethyl-6-methyl-5-oxo-2,6,9,11-tetrazabicyclo[5.4.0]undeca-7,9,11-trien-10-yl)amino]-3-methoxy-N-(1-methyl-4-piperidyl)benzamide]"
3,< 300 nM,"COc1cc(C(=O)NC2CCC(N3CCCC3)CC2)ccc1Nc1ncc2c(n1)N(C1CCCC1)CC(C)(C)C(=O)N2C (stereo not shown) [Example 360, 4-[(2-cyclopentyl-4,4,6-trimethyl-5-oxo-2,6,9,11-tetrazabicyclo[5.4.0]undeca-7,9,11-trien-10-yl)amino]-3-methoxy-N-(4-pyrrolidin-1-ylcyclohexyl)benzamide]"
4,< 300 nM,"COc1cc(C(=O)NC2CCNCC2)ccc1Nc1ncc2c(n1)N(C1CCCC1)CC(C)(C)C(=O)N2C [Example 349, 4-[(2-cyclopentyl-4,4,6-trimethyl-5-oxo-2,6,9,11-tetrazabicyclo[5.4.0]undeca-7,9,11-trien-10-yl)amino]-3-methoxy-N-(4-piperidyl)benzamide]"
5,< 300 nM,"CCN1CCC(NC(=O)c2ccc(Nc3ncc4c(n3)N(C(C)C)CC(CC)(CC)C(=O)N4C)c(OC)c2)CC1 [Example 305, 4-[(4,4-diethyl-6-methyl-5-oxo-2-propan-2-yl-2,6,9,11-tetrazabicyclo[5.4.0]undeca-7,9,11-trien-10-yl)amino]-N-(1-ethyl-4-piperidyl)-3-methoxy-benzamide]"
6,< 300 nM,"CN1CC[C@@H](NC(=O)c2cc(F)c(Nc3ncc4c(n3)N(C3CCCC3)CC3(CC3)C(=O)N4C)cc2F)C1 [Example 400, 4-(9′-cyclopentyl-5′-methyl-6′-oxo-5′,6′,8′,9′-tetrahydrospiro[cyclopropane-1,7′-pyrimido[5,4-b][1,4]diazepine]-2′-ylamino)-2,5-difluoro-N-[(3R)-1-methylpyrrolidin-3-yl]benzamide]"

row,Structure (SMILES),IC50
1,"CN1C(=O)C2(CC2)CN(C2CCCC2)c2nc(Nc3ccc(C(=O)NC4C[C@H]5CCC[C@@H](C4)N5C)cc3Cl)ncc21 (stereo partly drawn) [Example 402, 3-chloro-4-(9′-cyclopentyl-5′-methyl-6′-oxo-5′,6′,8′,9′-tetrahydrospiro[cyclopropane-1,7′-pyrimido[5,4-b][1,4]diazepine]-2′-ylamino)-N-[(1S,5R)-9-methyl-9-azabicyclo[3.3.1]non-7-yl]benzamide]",< 300 nM
2,"COc1cc(C(=O)NC2C[C@H]3CCC[C@@H](C2)N3C)ccc1Nc1ncc2c(n1)N(C1CCCC1)CC(C)(C)C(=O)N2 (stereo partly drawn) [Example 278, 4-[(2-cyclopentyl-4,4-dimethyl-5-oxo-2,6,9,11-tetrazabicyclo[5.4.0]undeca-7,9,11-trien-10-yl)amino]-3-methoxy-N-[(1S,5R)-9-methyl-9-azabicyclo[3.3.1]non-7-yl]benzamide]",< 1000 nM
3,"CN1C(=O)C2(CC2)CN(C2CCCC2)c2nc(Nc3ccc(C(=O)NC4C[C@H]5CCC[C@@H](C4)N5C)cc3F)ncc21 (stereo partly drawn) [Example 388, 4-(9′-cyclopentyl-5′-methyl-6′-oxo-5′,6′,8′,9′-tetrahydrospiro[cyclopropane-1,7′-pyrimido[5,4-b][1,4]diazepine]-2′-ylamino)-3-fluoro-N-[(1S,5R)-9-methyl-9-azabicyclo[3.3.1]non-7-yl]benzamide]",< 300 nM

# Same assay, conditions: HT-29, HT29 cells, 24 h, read-out: IC50 (cellular assay, phosphohistone H3)
row,Structure (SMILES),IC50
1,"CN1CCC(NC(=O)c2ccc(Nc3ncc4c(n3)N(C3CCCC3)CCC(=O)N4C)cc2)CC1 [Example 2, 4-[(2-cyclopentyl-6-methyl-5-oxo-2,6,9,11-tetrazabicyclo[5.4.0]undeca-8,10,12-trien-10-yl)amino]-N-(1-methyl-4-piperidyl)benzamide]",< 300 nM

# Source: US7709471B2, “Compounds” (AstraZeneca AB, priority 2006, dated 2010)
